Measured values taken from PubChem BioAssay (NCI).
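Results reflect a 48-hour exposure of cells in 96-well plates to compound at five concentrations. The concentration for 50% growth inhibition is given as GI50. TGI: total growth inhibition.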

What follows are molecules tested on NCI-H226 lung (assay: NCI-60 cell line screen, 48 h).

SMILES	TGI [µM]	GI50 [µM]
Cc1ccc(NC(=O)C(=O)C(C(=O)c2ccc3ccccc3c2)C2OC(=O)c3ccccc32)cc1C (stereo not given)	11	
CCC[CH2][Sn]1([CH2]CCC)[O]N=C(c2ccccc2)C(c2ccccc2)[O]1 (stereo not given)	5.59	2.09
O=S1(=O)C[C@H](O)[C@H](O)CS1	> 100	
N#Cc1nc(Nc2cccc3ccccc23)sc1N	> 100	
COc1cc([C@H]2Oc3cc(O)c4c(=O)cc(-c5ccccc5)oc4c3O[C@@H]2CO)ccc1O	80.1	
CCN(CC)CC1CCCCCCCCCCC1=O (stereo not given)	> 100	

Each molecule was assayed on KM20L2 colon (assay: NCI-60 cell line screen, 48 h).

SMILES	TGI [µM]	GI50 [µM]
Cc1ccc(NC(=O)C(=O)C(C(=O)c2ccc3ccccc3c2)C2OC(=O)c3ccccc32)cc1C (stereo not given)	> 100	
CCC[CH2][Sn]1([CH2]CCC)[O]N=C(c2ccccc2)C(c2ccccc2)[O]1 (stereo not given)	8.74	2.54
O=S1(=O)C[C@H](O)[C@H](O)CS1	> 100	
N#Cc1nc(Nc2cccc3ccccc23)sc1N	> 100	
CCN(CC)CC1CCCCCCCCCCC1=O (stereo not given)	> 100	
O=C1C(Cl)N(c2ccc(Cl)cc2)C1c1c[nH]c2ccccc12 (stereo not given)	38.3	

Each molecule was assayed on M19-MEL melanoma (assay: NCI-60 cell line screen, 48 h).

SMILES	TGI [µM]	GI50 [µM]
Cc1ccc(NC(=O)C(=O)C(C(=O)c2ccc3ccccc3c2)C2OC(=O)c3ccccc32)cc1C (stereo not given)	20.6	
CCC[CH2][Sn]1([CH2]CCC)[O]N=C(c2ccccc2)C(c2ccccc2)[O]1 (stereo not given)	3.13	1.56
O=S1(=O)C[C@H](O)[C@H](O)CS1	> 100	
N#Cc1nc(Nc2cccc3ccccc23)sc1N	> 100	
CCN(CC)CC1CCCCCCCCCCC1=O (stereo not given)	> 100	
O=C1C(Cl)N(c2ccc(Cl)cc2)C1c1c[nH]c2ccccc12 (stereo not given)	98.4	

Each molecule was assayed on NCI-H522 lung (assay: NCI-60 cell line screen, 48 h).

SMILES	GI50 [µM]	TGI [µM]
CCC[CH2][Sn]1([CH2]CCC)[O]N=C(c2ccccc2)C(c2ccccc2)[O]1 (stereo not given)	0.362	1.47
O=S1(=O)C[C@H](O)[C@H](O)CS1		> 100
N#Cc1nc(Nc2cccc3ccccc23)sc1N		46.4
COc1cc([C@H]2Oc3cc(O)c4c(=O)cc(-c5ccccc5)oc4c3O[C@@H]2CO)ccc1O		72
CCN(CC)CC1CCCCCCCCCCC1=O (stereo not given)		> 100
O=C1C(Cl)N(c2ccc(Cl)cc2)C1c1c[nH]c2ccccc12 (stereo not given)		39

The molecules below were run on NCI-H460 lung (assay: NCI-60 cell line screen, 48 h).

SMILES	TGI [µM]	GI50 [µM]
Cc1ccc(NC(=O)C(=O)C(C(=O)c2ccc3ccccc3c2)C2OC(=O)c3ccccc32)cc1C (stereo not given)	51.4	
CCC[CH2][Sn]1([CH2]CCC)[O]N=C(c2ccccc2)C(c2ccccc2)[O]1 (stereo not given)	15.8	4.46
O=S1(=O)C[C@H](O)[C@H](O)CS1	> 100	
N#Cc1nc(Nc2cccc3ccccc23)sc1N	> 100	
CCN(CC)CC1CCCCCCCCCCC1=O (stereo not given)	> 100	
O=C1C(Cl)N(c2ccc(Cl)cc2)C1c1c[nH]c2ccccc12 (stereo not given)	30.1	

What follows are molecules tested on M14 melanoma (assay: NCI-60 cell line screen, 48 h).

SMILES	TGI [µM]	GI50 [µM]
Cc1ccc(NC(=O)C(=O)C(C(=O)c2ccc3ccccc3c2)C2OC(=O)c3ccccc32)cc1C (stereo not given)	32.2	
CCC[CH2][Sn]1([CH2]CCC)[O]N=C(c2ccccc2)C(c2ccccc2)[O]1 (stereo not given)	3.09	1.63
O=S1(=O)C[C@H](O)[C@H](O)CS1	> 100	
N#Cc1nc(Nc2cccc3ccccc23)sc1N	> 100	
COc1cc([C@H]2Oc3cc(O)c4c(=O)cc(-c5ccccc5)oc4c3O[C@@H]2CO)ccc1O	> 100	
CCN(CC)CC1CCCCCCCCCCC1=O (stereo not given)	> 100	
O=C1C(Cl)N(c2ccc(Cl)cc2)C1c1c[nH]c2ccccc12 (stereo not given)	42.3	

What follows are molecules tested on HT29 colon (assay: NCI-60 cell line screen, 48 h).

SMILES	TGI [µM]	GI50 [µM]
Cc1ccc(NC(=O)C(=O)C(C(=O)c2ccc3ccccc3c2)C2OC(=O)c3ccccc32)cc1C (stereo not given)	> 100	
CCC[CH2][Sn]1([CH2]CCC)[O]N=C(c2ccccc2)C(c2ccccc2)[O]1 (stereo not given)	5.4	2.46
O=S1(=O)C[C@H](O)[C@H](O)CS1	> 100	
N#Cc1nc(Nc2cccc3ccccc23)sc1N	> 100	
CCN(CC)CC1CCCCCCCCCCC1=O (stereo not given)	> 100	
O=C1C(Cl)N(c2ccc(Cl)cc2)C1c1c[nH]c2ccccc12 (stereo not given)	37.5	

The molecules below were run on LXFL 529 NSCLC (assay: NCI-60 cell line screen, 48 h).

SMILES	TGI [µM]	GI50 [µM]
Cc1ccc(NC(=O)C(=O)C(C(=O)c2ccc3ccccc3c2)C2OC(=O)c3ccccc32)cc1C (stereo not given)	22	
CCC[CH2][Sn]1([CH2]CCC)[O]N=C(c2ccccc2)C(c2ccccc2)[O]1 (stereo not given)	1.23	0.316
O=S1(=O)C[C@H](O)[C@H](O)CS1	> 100	
N#Cc1nc(Nc2cccc3ccccc23)sc1N	> 100	
COc1cc([C@H]2Oc3cc(O)c4c(=O)cc(-c5ccccc5)oc4c3O[C@@H]2CO)ccc1O	77	
CCN(CC)CC1CCCCCCCCCCC1=O (stereo not given)	> 100	
O=C1C(Cl)N(c2ccc(Cl)cc2)C1c1c[nH]c2ccccc12 (stereo not given)	30.2	

These molecules were tested on U251 CNS (assay: NCI-60 cell line screen, 48 h).

SMILES	TGI [µM]	GI50 [µM]
Cc1ccc(NC(=O)C(=O)C(C(=O)c2ccc3ccccc3c2)C2OC(=O)c3ccccc32)cc1C (stereo not given)	33.2	
CCC[CH2][Sn]1([CH2]CCC)[O]N=C(c2ccccc2)C(c2ccccc2)[O]1 (stereo not given)	2.9	1.54
O=S1(=O)C[C@H](O)[C@H](O)CS1	> 100	
N#Cc1nc(Nc2cccc3ccccc23)sc1N	52.9	
CCN(CC)CC1CCCCCCCCCCC1=O (stereo not given)	> 100	
O=C1C(Cl)N(c2ccc(Cl)cc2)C1c1c[nH]c2ccccc12 (stereo not given)	25.7	

The molecules below were run on SN12C renal (assay: NCI-60 cell line screen, 48 h).

SMILES	TGI [µM]	GI50 [µM]
Cc1ccc(NC(=O)C(=O)C(C(=O)c2ccc3ccccc3c2)C2OC(=O)c3ccccc32)cc1C (stereo not given)	44.8	
CCC[CH2][Sn]1([CH2]CCC)[O]N=C(c2ccccc2)C(c2ccccc2)[O]1 (stereo not given)	3.18	1.77
O=S1(=O)C[C@H](O)[C@H](O)CS1	> 100	
N#Cc1nc(Nc2cccc3ccccc23)sc1N	> 100	
COc1cc([C@H]2Oc3cc(O)c4c(=O)cc(-c5ccccc5)oc4c3O[C@@H]2CO)ccc1O	> 100	
CCN(CC)CC1CCCCCCCCCCC1=O (stereo not given)	> 100	
O=C1C(Cl)N(c2ccc(Cl)cc2)C1c1c[nH]c2ccccc12 (stereo not given)	36	

Each molecule was assayed on SK-MEL-2 melanoma (assay: NCI-60 cell line screen, 48 h).

SMILES	TGI [µM]	GI50 [µM]
Cc1ccc(NC(=O)C(=O)C(C(=O)c2ccc3ccccc3c2)C2OC(=O)c3ccccc32)cc1C (stereo not given)	36.3	
CCC[CH2][Sn]1([CH2]CCC)[O]N=C(c2ccccc2)C(c2ccccc2)[O]1 (stereo not given)	2.53	1.27
N#Cc1nc(Nc2cccc3ccccc23)sc1N	79.2	
COc1cc([C@H]2Oc3cc(O)c4c(=O)cc(-c5ccccc5)oc4c3O[C@@H]2CO)ccc1O	> 100	
CCN(CC)CC1CCCCCCCCCCC1=O (stereo not given)	> 100	
O=C1C(Cl)N(c2ccc(Cl)cc2)C1c1c[nH]c2ccccc12 (stereo not given)	29.3	

What follows are molecules tested on UO-31 renal (assay: NCI-60 cell line screen, 48 h).

SMILES	TGI [µM]	GI50 [µM]
Cc1ccc(NC(=O)C(=O)C(C(=O)c2ccc3ccccc3c2)C2OC(=O)c3ccccc32)cc1C (stereo not given)	27.6	
CCC[CH2][Sn]1([CH2]CCC)[O]N=C(c2ccccc2)C(c2ccccc2)[O]1 (stereo not given)	3.46	1.68
O=S1(=O)C[C@H](O)[C@H](O)CS1	> 100	
N#Cc1nc(Nc2cccc3ccccc23)sc1N	49	
COc1cc([C@H]2Oc3cc(O)c4c(=O)cc(-c5ccccc5)oc4c3O[C@@H]2CO)ccc1O	58.6	
CCN(CC)CC1CCCCCCCCCCC1=O (stereo not given)	> 100	
O=C1C(Cl)N(c2ccc(Cl)cc2)C1c1c[nH]c2ccccc12 (stereo not given)	35	

Each molecule was assayed on MALME-3M melanoma (assay: NCI-60 cell line screen, 48 h).

SMILES	TGI [µM]	GI50 [µM]
Cc1ccc(NC(=O)C(=O)C(C(=O)c2ccc3ccccc3c2)C2OC(=O)c3ccccc32)cc1C (stereo not given)	57.8	
CCC[CH2][Sn]1([CH2]CCC)[O]N=C(c2ccccc2)C(c2ccccc2)[O]1 (stereo not given)	2.49	1.13
O=S1(=O)C[C@H](O)[C@H](O)CS1	> 100	
N#Cc1nc(Nc2cccc3ccccc23)sc1N	> 100	
COc1cc([C@H]2Oc3cc(O)c4c(=O)cc(-c5ccccc5)oc4c3O[C@@H]2CO)ccc1O	46.3	
CCN(CC)CC1CCCCCCCCCCC1=O (stereo not given)	> 100	
O=C1C(Cl)N(c2ccc(Cl)cc2)C1c1c[nH]c2ccccc12 (stereo not given)	25.6	

The molecules below were run on HOP-92 NSCLC (assay: NCI-60 cell line screen, 48 h).

SMILES	TGI [µM]	GI50 [µM]
Cc1ccc(NC(=O)C(=O)C(C(=O)c2ccc3ccccc3c2)C2OC(=O)c3ccccc32)cc1C (stereo not given)	40.6	
CCC[CH2][Sn]1([CH2]CCC)[O]N=C(c2ccccc2)C(c2ccccc2)[O]1 (stereo not given)	2.96	1.54
O=S1(=O)C[C@H](O)[C@H](O)CS1	> 100	
